Experiments:
[1] = Solid stability at T = 60° C. in atmosphere with 60% relative humidity (HPLC); assay type: physicochemical; set-up: Impurity RRt = 1.05 / Impurity RRt = 1.34 / Diester impurity: unit not given here
Description: In confirmation thereof, another stability test was carried out at 60° C. on the crystallized solid product, whose results are reported in Table 2. In detail, the experiment consists of introducing a sample of fesoterodine fumarate in an oven capable of maintaining a temperature of 60° C. and 60% relative humidity, drawing samples of the freshly introduced substance (time 0) after 24, 48, 72 and 144 hours staying in such conditions, and analyzing them in HPLC in order to verify their purity.

[2] = Solution stability in methylethylketone at T = 40° C. (HPLC); assay type: physicochemical
Description: In detail, the experiment related to Table 1 consists of dissolving fesoterodine fumarate in methylethylketone at 40° C., drawing samples of the freshly dissolved solution (time 0), after 1, 3 and 20 hours of maintenance at 40° C. and analyzing them in HPLC in order to verify their purity.

Structure (SMILES): CC(C)C(=O)Oc1ccc(CO)cc1[C@H](CCN(C(C)C)C(C)C)c1ccccc1.O=C(O)/C=C/C(=O)O [fesoterodine fumarate, 2-((R)-3-diisopropylammonium-1-phenylpropyl)-4-(hydroxymethyl) phenyl isobutyrate hydrogen fumarate]
- (R)-feso-deacyl ([1]; t = 0): 0.02%
- Diester impurity ([1]; t = 0): 0.04
- Feso fumaric ester impurity ([1]; t = 0): 0.09
- HPLC Purity ([1]; t = 0): 99.85 Area %
- (R)-feso-deacyl ([1]; t = 24 h): 0.02%
- Diester impurity ([1]; t = 24 h): 0.04
- Feso fumaric ester impurity ([1]; t = 24 h): 0.11
- HPLC Purity ([1]; t = 24 h): 99.83 Area %
- (R)-feso-deacyl ([1]; t = 48 h): 0.02%
- Diester impurity ([1]; t = 48 h): 0.04
- Feso fumaric ester impurity ([1]; t = 48 h): 0.12
- HPLC Purity ([1]; t = 48 h): 99.74 Area %
- Impurity RRt = 1.34 ([1]; t = 48 h): 0.08
- (R)-feso-deacyl ([1]; t = 72 h): 0.03%
- Diester impurity ([1]; t = 72 h): 0.04
- Feso fumaric ester impurity ([1]; t = 72 h): 0.13
- HPLC Purity ([1]; t = 72 h): 99.72 Area %
- Impurity RRt = 1.05 ([1]; t = 72 h): 0.02
- Impurity RRt = 1.34 ([1]; t = 72 h): 0.06
- (R)-feso-deacyl ([1]; t = 144 h): 0.05%
- Diester impurity ([1]; t = 144 h): 0.04
- Feso fumaric ester impurity ([1]; t = 144 h): 0.14
- HPLC Purity ([1]; t = 144 h): 99.64 Area %
- Impurity RRt = 1.05 ([1]; t = 144 h): 0.03
- Impurity RRt = 1.34 ([1]; t = 144 h): 0.07
- RRt = 1.86 ([1]; t = 144 h): 0.03%
- Feso fumaric ester impurity ([2]; t = 0): 0.07
- HPLC Purity ([2]; t = 0): 99.87 Area %
- Impurity RRt = 1.34 ([2]; t = 0): 0.06
- Feso fumaric ester impurity ([2]; t = 1 hour): 0.09
- HPLC Purity ([2]; t = 1 hour): 99.85 Area %
- Impurity RRt = 1.34 ([2]; t = 1 hour): 0.06
- (R)-feso-deacyl ([2]; t = 3 hours): 0.01%
- Diester impurity ([2]; t = 3 hours): 0.04
- Feso fumaric ester impurity ([2]; t = 3 hours): 0.12
- HPLC Purity ([2]; t = 3 hours): 99.77 Area %
- Impurity RRt = 1.34 ([2]; t = 3 hours): 0.06
- (R)-feso-deacyl ([2]; t = 20 hours): 0.02%
- Diester impurity ([2]; t = 20 hours): 0.06
- Feso fumaric ester impurity ([2]; t = 20 hours): 0.14
- HPLC Purity ([2]; t = 20 hours): 99.70 Area %
- Impurity RRt = 1.34 ([2]; t = 20 hours): 0.08
